Assay results taken from US20230322761A1, “DEGRADATION OF BRUTON'S TYROSINE KINASE (BTK) BY CONJUGATION OF BTK INHIBITORS WITH E3 LIGASE LIGAND AND METHODS OF USE” (BEIGENE, LTD., priority 2020, published 2023).

target: T1, BTK (Homo sapiens, UniProt Q06187); experiment: BTK degradation in TMD-8 cells, HTRF assay after 6 h treatment; assay type: cell-based; conditions: IC50 (DC50) of BTK degradation
T1 construct: endogenous in cells; host or cells: TMD-8 cells
Method in brief: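 Remaining BTK was quantified by HTRF in lysates of TMD-8 cells after 6 h exposure to an 8-point, 6-fold compound series (500× stocks in DMSO starting at 1 mM; 0.2% DMSO). Lysis 30 min, antibodies overnight at room temperature, ratio read at 665/620 nm; DC50 fitted with a four-parameter logistic equation.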

T1 sequence (Q06187 whole entry): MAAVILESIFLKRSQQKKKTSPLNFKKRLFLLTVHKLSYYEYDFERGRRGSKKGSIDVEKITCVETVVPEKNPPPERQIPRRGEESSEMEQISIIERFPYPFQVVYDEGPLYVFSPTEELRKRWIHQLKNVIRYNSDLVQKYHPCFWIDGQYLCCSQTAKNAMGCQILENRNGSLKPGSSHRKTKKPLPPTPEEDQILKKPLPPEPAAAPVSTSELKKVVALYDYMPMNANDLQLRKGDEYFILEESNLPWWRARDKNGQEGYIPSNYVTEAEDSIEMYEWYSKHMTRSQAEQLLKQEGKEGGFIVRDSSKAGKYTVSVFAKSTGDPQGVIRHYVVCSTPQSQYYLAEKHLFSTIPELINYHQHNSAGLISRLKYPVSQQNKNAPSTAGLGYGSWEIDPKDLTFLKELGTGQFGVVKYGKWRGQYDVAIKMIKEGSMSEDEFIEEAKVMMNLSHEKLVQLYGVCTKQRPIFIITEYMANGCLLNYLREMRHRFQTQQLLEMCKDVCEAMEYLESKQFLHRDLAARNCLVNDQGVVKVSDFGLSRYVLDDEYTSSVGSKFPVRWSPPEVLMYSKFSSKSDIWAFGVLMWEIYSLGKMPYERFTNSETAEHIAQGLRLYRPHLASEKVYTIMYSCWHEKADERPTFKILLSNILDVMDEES

DC50 [nM] | Structure (SMILES)
5.27 | Cc1cc(-c2n[nH]c3ncc(-c4ccc(C5(F)CCN(CC6CCN(c7ccc(N8CCC(=O)NC8=O)cc7)CC6)CC5)cc4)cc23)ccc1[C@@H](C)NC(=O)c1nc(C(C)(C)C)no1 [Example 203, (R)-3-(tert-butyl)-N-(1-(4-(5-(4-(1-((1-(4-(2,4-dioxotetrahydropyrimidin-1(2H)-yl)phenyl)piperidin-4-yl)methyl)-4-fluoropiperidin-4-yl)phenyl)-1H-pyrazolo[3,4-b]pyridin-3-yl)-2-methylphenyl)ethyl)-1,2,4-oxadiazole-5-carboxamide]
2.02 | Cc1cc(-c2n[nH]c3ncc(-c4ccc(C5(O)CCN(CC6CCN(c7ccc(N8CCC(=O)NC8=O)cc7)CC6)CC5)cn4)cc23)ccc1[C@@H](C)NC(=O)c1nc(C(C)(C)C)no1 [Example 204, (R)-3-(tert-butyl)-N-(1-(4-(5-(5-(1-((1-(4-(2,4-dioxotetrahydropyrimidin-1(2H)-yl)phenyl)piperidin-4-yl)methyl)-4-hydroxypiperidin-4-yl)pyridin-2-yl)-1H-pyrazolo[3,4-b]pyridin-3-yl)-2-methylphenyl)ethyl)-1,2,4-oxadiazole-5-carboxamide]
0.736 | Cc1cc(-c2n[nH]c3ncc(-c4ccc(C5(F)CCN(CC6CCN(c7ccc(N8CCC(=O)NC8=O)cc7)CC6)CC5)cn4)cc23)ccc1[C@@H](C)NC(=O)c1nc(C(C)(C)C)no1 [Example 205, (R)-3-(tert-butyl)-N-(1-(4-(5-(5-(1-((1-(4-(2,4-dioxotetrahydropyrimidin-1(2H)-yl)phenyl)piperidin-4-yl)methyl)-4-fluoropiperidin-4-yl)pyridin-2-yl)-1H-pyrazolo[3,4-b]pyridin-3-yl)-2-methylphenyl)ethyl)-1,2,4-oxadiazole-5-carboxamide]
> 2000 | Cc1cc(-c2n[nH]c3ncc(-c4ccc(N5CCN(CCc6ccc7c(c6)C[C@]6(CC(=O)NC6=O)C7)CC5)cc4)cc23)ccc1[C@@H](C)NC(=O)c1nc(C(C)(C)C)no1 [Example 206, 3-(tert-butyl)-N—((R)-1-(4-(5-(4-(4-(2-((S)-2′,5′-dioxo-1,3-dihydrospiro[indene-2,3′-pyrrolidin]-5-yl)ethyl)piperazin-1-yl)phenyl)-1H-pyrazolo[3,4-b]pyridin-3-yl)-2-methylphenyl)ethyl)-1,2,4-oxadiazole-5-carboxamide]
54 | Cc1cc(-c2n[nH]c3ncc(-c4ccc(N5CCN(CCc6ccc7c(c6)C[C@@]6(CC(=O)NC6=O)C7)CC5)cc4)cc23)ccc1[C@@H](C)NC(=O)c1nc(C(C)(C)C)no1 [Example 207, 3-(tert-butyl)-N—((R)-1-(4-(5-(4-(4-(2-((R)-2′,5′-dioxo-1,3-dihydrospiro[indene-2,3′-pyrrolidin]-5-yl)ethyl)piperazin-1-yl)phenyl)-1H-pyrazolo[3,4-b]pyridin-3-yl)-2-methylphenyl)ethyl)-1,2,4-oxadiazole-5-carboxamide]
2.08 | Cc1cc(-c2n[nH]c3ncc(-c4ccc(N5CCN(C6CC(c7ccc([C@@H]8CCC(=O)NC8=O)cc7)C6)CC5)cc4)cc23)ccc1[C@@H](C)NC(=O)c1noc(C(C)(C)C)n1 (stereo partly drawn) [Example 208, 5-(tert-butyl)-N—((R)-1-(4-(5-(4-(4-((1S,3s)-3-(4-((R)-2,6-dioxopiperidin-3-yl)phenyl)cyclobutyl)piperazin-1-yl)phenyl)-1H-pyrazolo[3,4-b]pyridin-3-yl)-2-methylphenyl)ethyl)-1,2,4-oxadiazole-3-carboxamide]
13.6 | Cc1cc(-c2n[nH]c3ncc(-c4ccc(N5CCN(C6CC(c7ccc([C@@H]8CCC(=O)NC8=O)cc7)C6)CC5)cc4)cc23)ccc1[C@@H](C)NC(=O)c1noc(C(C)(C)C)n1 (stereo partly drawn) [Example 209, 5-(tert-butyl)-N—((R)-1-(4-(5-(4-(4-((1R,3s)-3-(4-((S)-2,6-dioxopiperidin-3-yl)phenyl)cyclobutyl)piperazin-1-yl)phenyl)-1H-pyrazolo[3,4-b]pyridin-3-yl)-2-methylphenyl)ethyl)-1,2,4-oxadiazole-3-carboxamide]
5.98 | Cc1cc(-c2n[nH]c3ncc(-c4ccc(C5(C)CCN(CC6CCN(c7ccc(N8CCC(=O)NC8=O)cc7)CC6)CC5)cc4)cc23)ccc1[C@@H](C)NC(=O)c1noc(C(C)(C)C)n1 [Example 210, (R)-5-(tert-butyl)-N-(1-(4-(5-(4-(1-((1-(4-(2,4-dioxotetrahydropyrimidin-1(2H)-yl)phenyl)piperidin-4-yl)methyl)-4-methylpiperidin-4-yl)phenyl)-1H-pyrazolo[3,4-b]pyridin-3-yl)-2-methylphenyl)ethyl)-1,2,4-oxadiazole-3-carboxamide]
13.5 | Cc1cc(-c2n[nH]c3ncc(-c4ccc(C5(C)CCN(C6CC(c7ccc(C8CCC(=O)NC8=O)cc7)C6)CC5)cc4)cc23)ccc1[C@@H](C)NC(=O)c1noc(C(C)(C)C)n1 (stereo partly drawn) [Example 211, 5-(tert-butyl)-N-((1R)-1-(4-(5-(4-(1-(3-(4-(2,6-dioxopiperidin-3-yl)phenyl)cyclobutyl)-4-methylpiperidin-4-yl)phenyl)-1H-pyrazolo[3,4-b]pyridin-3-yl)-2-methylphenyl)ethyl)-1,2,4-oxadiazole-3-carboxamide]
1.95 | Cc1cc(-c2n[nH]c3ncc(-c4ccc(N5CC6(CN(CC7CCN(c8ccc(N9CCC(=O)NC9=O)cc8)CC7)C6)C5)cc4)cc23)ccc1[C@@H](C)NC(=O)c1nc(C(C)(C)C)no1 [Example 212, (R)-3-(tert-butyl)-N-(1-(4-(5-(4-(6-((1-(4-(2,4-dioxotetrahydropyrimidin-1(2H)-yl)phenyl)piperidin-4-yl)methyl)-2,6-diazaspiro[3.3]heptan-2-yl)phenyl)-1H-pyrazolo[3,4-b]pyridin-3-yl)-2-methylphenyl)ethyl)-1,2,4-oxadiazole-5-carboxamide]
5.04 | Cc1cc(-c2n[nH]c3ncc(-c4ccc(N5CCN(CC6CCN(c7ccc(N8CCC(=O)NC8=O)cc7)CC6)CC5)cc4)cc23)ccc1[C@@H](C)NC(=O)c1nc(C2(C)CC2)no1 [Example 213, (R)—N-(1-(4-(5-(4-(4-((1-(4-(2,4-dioxotetrahydropyrimidin-1(2H)-yl)phenyl)piperidin-4-yl)methyl)piperazin-1-yl)phenyl)-1H-pyrazolo[3,4-b]pyridin-3-yl)-2-methylphenyl)ethyl)-3-(1-methylcyclopropyl)-1,2,4-oxadiazole-5-carboxamide]
1.3 | Cc1cc(-c2n[nH]c3ncc(-c4ccc(N5CCN(C6CC(c7ccc(C8CCC(=O)NC8=O)cc7)C6)CC5)cc4)cc23)ccc1[C@@H](C)NC(=O)c1noc(C(C)(C)C)n1 (stereo partly drawn) [Example 214, 5-(tert-butyl)-N-((1R)-1-(4-(5-(4-(4-((1s,3s)-3-(4-(2,6-dioxopiperidin-3-yl)phenyl)cyclobutyl)piperazin-1-yl)phenyl)-1H-pyrazolo[3,4-b]pyridin-3-yl)-2-methylphenyl)ethyl)-1,2,4-oxadiazole-3-carboxamide]
11.8 | Cc1cc(-c2n[nH]c3ncc(-c4ccc(N5CCN(Cc6ccc(C7CCC(=O)NC7=O)c(F)c6)CC5)cc4)cc23)ccc1[C@@H](C)NC(=O)c1nc(C(C)(C)C)no1 (stereo partly drawn) [Example 215, 3-(tert-butyl)-N-((1R)-1-(4-(5-(4-(4-(4-(2,6-dioxopiperidin-3-yl)-3-fluorobenzyl)piperazin-1-yl)phenyl)-1H-pyrazolo[3,4-b]pyridin-3-yl)-2-methylphenyl)ethyl)-1,2,4-oxadiazole-5-carboxamide]
